System: NOMO1
Assay: cell viability relative to DMSO control; higher = less cytotoxic
Details: 48 h
Method in brief: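 In 1536-well plates, 5 μl of leukemia cells were seeded per well: 500 cells/well for NOMO1 or SEM and 1000 cells/well for P12-Ichikawa. Each line had first been adapted for at least four passages in each medium. Library compounds in DMSO were pin-dosed at 11 threefold concentrations between 47 μM and 0.79 nM, and CellTiter-Glo One luminescence was read after 48 h at 37°C. Viability is a per-plate percentage relative to DMSO wells, with cell-free wells as background.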

[1] = HPLM + 10% dialyzed FBS, 0.000781 µM
[2] = HPLM + 10% dialyzed FBS, 0.00234 µM
[3] = HPLM + 10% dialyzed FBS, 0.00702 µM
[4] = HPLM + 10% dialyzed FBS, 0.0211 µM
[5] = HPLM + 10% dialyzed FBS, 0.0632 µM
[6] = HPLM + 10% dialyzed FBS, 0.19 µM
[7] = HPLM + 10% dialyzed FBS, 0.569 µM
[8] = HPLM + 10% dialyzed FBS, 1.71 µM
[9] = HPLM + 10% dialyzed FBS, 5.12 µM
[10] = HPLM + 10% dialyzed FBS, 15.4 µM
[11] = HPLM + 10% dialyzed FBS, 46.1 µM
[12] = RPMI 5 mM glucose + 10% FBS, 0.000781 µM
[13] = RPMI 5 mM glucose + 10% FBS, 0.00234 µM
[14] = RPMI 5 mM glucose + 10% FBS, 0.00702 µM
[15] = RPMI 5 mM glucose + 10% FBS, 0.0211 µM
[16] = RPMI 5 mM glucose + 10% FBS, 0.0632 µM
[17] = RPMI 5 mM glucose + 10% FBS, 0.19 µM
[18] = RPMI 5 mM glucose + 10% FBS, 0.569 µM
[19] = RPMI 5 mM glucose + 10% FBS, 1.71 µM
[20] = RPMI 5 mM glucose + 10% FBS, 5.12 µM
[21] = RPMI 5 mM glucose + 10% FBS, 15.4 µM
[22] = RPMI 5 mM glucose + 10% FBS, 46.1 µM
[23] = RPMI 5 mM glucose + 10% dialyzed FBS, 0.000781 µM
[24] = RPMI 5 mM glucose + 10% dialyzed FBS, 0.00234 µM
[25] = RPMI 5 mM glucose + 10% dialyzed FBS, 0.00702 µM
[26] = RPMI 5 mM glucose + 10% dialyzed FBS, 0.0211 µM
[27] = RPMI 5 mM glucose + 10% dialyzed FBS, 0.0632 µM
[28] = RPMI 5 mM glucose + 10% dialyzed FBS, 0.19 µM
[29] = RPMI 5 mM glucose + 10% dialyzed FBS, 0.569 µM
[30] = RPMI 5 mM glucose + 10% dialyzed FBS, 1.71 µM
[31] = RPMI 5 mM glucose + 10% dialyzed FBS, 5.12 µM
[32] = RPMI 5 mM glucose + 10% dialyzed FBS, 15.4 µM
[33] = RPMI 5 mM glucose + 10% dialyzed FBS, 46.1 µM

Row | Structure (SMILES) | cell viability [1] [%] | cell viability [2] [%] | cell viability [3] [%] | cell viability [4] [%] | cell viability [5] [%] | cell viability [6] [%] | cell viability [7] [%] | cell viability [8] [%] | cell viability [9] [%] | cell viability [10] [%] | cell viability [11] [%] | cell viability [12] [%] | cell viability [13] [%] | cell viability [14] [%] | cell viability [15] [%] | cell viability [16] [%] | cell viability [17] [%] | cell viability [18] [%] | cell viability [19] [%] | cell viability [20] [%] | cell viability [21] [%] | cell viability [22] [%] | cell viability [23] [%] | cell viability [24] [%] | cell viability [25] [%] | cell viability [26] [%] | cell viability [27] [%] | cell viability [28] [%] | cell viability [29] [%] | cell viability [30] [%] | cell viability [31] [%] | cell viability [32] [%] | cell viability [33] [%]
1 | CN(C)CCOc1cc(-c2cn[nH]c2)ccc1NC(=O)C1COc2ccccc2O1 (stereo unspecified) | 84.2 | 104 | 118 | 122 | 118 | 106 | 119 | 107 | 122 | 93.9 | 67.1 | 105 | 93.2 | 110 | 127 | 94.7 | 97.5 | 114 | 96.3 | 85.4 | 81.5 | 64.3 | 98.5 | 100 | 106 | 112 | 114 | 97.7 | 102 | 96.9 | 91.5 | 71.8 | 77
2 | COc1cc2c(cc1-c1c(C)noc1C)ncc1[nH]c(=O)n([C@H](C)c3ccccn3)c12 | – | – | – | – | – | – | – | – | – | – | – | 122 | 110 | 114 | 115 | 111 | 99.8 | 108 | 98.2 | 30.8 | 30.5 | 22 | 114 | 124 | 98.3 | 118 | 124 | 117 | 118 | 102 | 30.1 | 35.6 | 22.7
3 | CCN(CC)CC#CCOC(=O)C(O)(c1ccccc1)C1CCCCC1 (stereo unspecified) | – | – | – | – | – | – | – | – | – | – | – | 133 | 115 | 122 | 113 | 138 | 127 | 117 | 137 | 120 | 125 | 117 | 128 | 121 | 120 | 124 | 140 | 123 | 140 | 132 | 135 | 134 | 120
4 | CC(C)(C)c1cc(NC(=O)Nc2ccc(-c3cn4c(n3)sc3cc(OCCN5CCOCC5)ccc34)cc2)no1 | 92.8 | 93.9 | 90.5 | 104 | 101 | 102 | 87.3 | 99.7 | 110 | 123 | 96.5 | 76.8 | 76 | 85.1 | 88.3 | 82 | 79.2 | 81.4 | 87 | 81.4 | 81.8 | 88.5 | 85.1 | 94.8 | 101 | 82.3 | 90.5 | 90.8 | 90.8 | 93.1 | 92.9 | 92.1 | 89.7
5 | COC(=O)Nc1nc2cc(C(=O)c3cccs3)ccc2[nH]1 | 106 | 88.5 | 113 | 81.8 | 43.6 | 34.2 | 32.3 | 44 | 57.7 | 57.3 | 53.1 | – | – | – | – | – | – | – | – | – | – | – | 98.2 | 113 | 129 | 101 | 53.6 | 28.1 | 33.7 | 36.1 | 36.2 | 40.5 | 42.2
6 | CN(C)c1ccc(O)c2c1C[C@H]1C[C@H]3[C@H](N(C)C)C(O)=C(C(N)=O)C(=O)[C@@]3(O)C(O)=C1C2=O | 103 | 105 | 105 | 118 | 117 | 125 | 99.8 | 111 | 101 | 100 | 113 | 103 | 98 | 109 | 98.1 | 114 | 122 | 107 | 109 | 101 | 98.5 | 107 | 96 | 93.6 | 101 | 88.7 | 95.3 | 96 | 92.8 | 102 | 97.3 | 98.9 | 113
7 | CNC1CCC(N(Cc2cccc(-c3ccncc3)c2)C(=O)c2sc3ccccc3c2Cl)CC1 (stereo unspecified) | 74.1 | 92.9 | 104 | 113 | 107 | 99 | 101 | 36.1 | 6.61 | 7.33 | 1.5 | 90.8 | 85.3 | 85.5 | 93 | 86 | 90.6 | 92.4 | 87.7 | 11.3 | 5.87 | 1.62 | 79.3 | 88.3 | 93.2 | 87 | 84.7 | 97.8 | 95.9 | 102 | 55 | 60.4 | 1.53
8 | CC\1=C/C=C\C=[N]1[Pt](N)(Cl)Cl | 118 | 105 | 111 | 110 | 108 | 130 | 131 | 98.8 | 106 | 129 | 108 | 96.4 | 95.6 | 93.4 | 103 | 99.6 | 113 | 106 | 88.7 | 106 | 110 | 93.3 | 107 | 90.8 | 96.6 | 95.3 | 96.4 | 111 | 97.3 | 104 | 107 | 109 | 96.3
9 | OC1=CC=C(C=C1)\C2=C\OC3=C(C=CC(=C3)O)C2=O | 97.3 | 92.8 | 102 | 119 | 118 | 99.6 | 105 | 106 | 104 | 93.9 | 99.6 | 93.1 | 91.6 | 89 | 93.4 | 119 | 96.2 | 92.4 | 86.8 | 103 | 100 | 94.2 | 98.8 | 108 | 84.2 | 107 | 112 | 96.1 | 105 | 96.6 | 102 | 89 | 94.5
10 | O=NN(CCCl)C(=O)NC1CCCCC1 | 91.4 | 114 | 110 | 94.8 | 105 | 107 | 113 | 110 | 111 | 97.4 | 109 | 99.2 | 95.4 | 113 | 95.2 | 102 | 108 | 115 | 56.6 | 100 | 110 | 102 | 102 | 102 | 93.5 | 105 | 111 | 97.7 | 113 | 93.6 | 99.2 | 109 | 99.7
11 | CC1=CC=CC=C1N2\C(=N/C3=C(C(=CC=C3)C)C2=O)C[N]4C=NC5=C4N=CN=C5N | – | – | – | – | – | – | – | – | – | – | – | 107 | 106 | 122 | 108 | 110 | 106 | 107 | 94.4 | 69.2 | 72.9 | 67 | 108 | 109 | 109 | 97.1 | 113 | 92.6 | 94.8 | 80.8 | 67.2 | 64.5 | 61.1
12 | COc1nccc(-c2c(-c3ccc(F)cc3)ncn2C2CCNCC2)n1 | 95.7 | 121 | 124 | 127 | 120 | 121 | 119 | 94.4 | 107 | 78.3 | 49.4 | 45.8 | 120 | 115 | 101 | 113 | 107 | 100 | 112 | 96.7 | 97.6 | 74 | 44.9 | 119 | 97.3 | 110 | 106 | 104 | 108 | 104 | 101 | 99.1 | 68
13 | CCCCCCCCCCCCCCCCCCCCCCO | 108 | 134 | 120 | 140 | 125 | 150 | 133 | 148 | 147 | 147 | 129 | – | – | – | – | – | – | – | – | – | – | – | 121 | 107 | 129 | 128 | 132 | 140 | 141 | 140 | 123 | 143 | 145
14 | CC(=O)Nc1ccc(OC[C@](C)(O)C(=O)Nc2ccc([N+](=O)[O-])c(C(F)(F)F)c2)cc1 | 66.3 | 68.2 | 72.9 | 70.6 | 87.7 | 80.2 | 88.4 | 83.5 | 83.4 | 77.8 | 82.4 | 70.5 | 76.9 | 75.4 | 82.8 | 87 | 83 | 82.8 | 88.2 | 76.2 | 86.9 | 82.2 | 72 | 78.1 | 87.3 | 83.1 | 92.7 | 86.1 | 85.1 | 85.6 | 85.2 | 92.5 | 78
15 | CC1(C)Cc2c(-c3ccccc3)c(-c3ccc(Cl)cc3)c(CC(=O)O)n2C1 | 115 | 106 | 130 | 131 | 111 | 120 | 128 | 106 | 108 | 99.5 | 90.6 | 102 | 123 | 118 | 124 | 119 | 115 | 112 | 101 | 99 | 111 | 96.8 | 110 | 114 | 105 | 115 | 117 | 113 | 114 | 106 | 105 | 91.8 | 89.2
16 | CC(NC1=CC=CC=C1)C\2=C\C(=C/N3C(=O)\C=C(/N=C23)N4CCOCC4)C (stereo unspecified) | 91.6 | 106 | 115 | 105 | 114 | 117 | 125 | 118 | 108 | 99.6 | 87.6 | 92.7 | 96.3 | 97.7 | 109 | 109 | 102 | 115 | 99.8 | 108 | 105 | 108 | 95.7 | 92.9 | 111 | 110 | 105 | 116 | 109 | 108 | 94.7 | 96.7 | 83
17 | CC[C@H](CC#N)OC(=O)N[C@@H](C)c1cccc(NC(=O)Nc2ccc(-c3cnco3)c(OC)c2)c1 | 117 | 114 | 119 | 105 | 127 | 111 | 98.2 | 76.4 | 38.9 | 32.1 | 35.1 | 111 | 104 | 121 | 107 | 114 | 105 | 113 | 66.8 | 38.3 | 25.9 | 22.3 | 117 | 106 | 115 | 120 | 111 | 112 | 91 | 84 | 51.9 | 39.4 | 35.8

— the supplement of paper PMC11451515
